# Reference: patent US20220211678A1, “USES OF (+)-A-DIHYDROTETRABENAZINE IN METHODS OF TREATING MOVEMENT DISORDER” (ADEPTIO PHARMACEUTICALS LIMITED, priority 2017, published 2022)
# Key:
# VMAT2 [1] = biological target: T1, VMAT2 (Homo sapiens, UniProt Q05940); test: % VMAT2 blocking by PET scan 60-120 minutes after oral dosing of human volunteers (Example 1A); format: in vivo
# T1 construct: from tissue; host or cells: brain of living human volunteers, measured by PET
# Excerpt: (§1) Complete blocking of VMAT2 is considered undesirable as this can lead to unwanted side effects, such as Parkinsonism. […] The levels of VMAT2 blocking can be determined by competitive binding studies using Positron Emission Tomography (PET). By co-administering a radioactive ligand with the compound of interest at various concentrations, the proportion of binding sites occupied can be determined (see for example, Matthews et al., “Positron emission tomography molecular imaging for drug development”, Br. J. Clin. Pharmacol., 73:2, 175-186). Accordingly, the invention also provides:
# In four of the volunteers, blood sample were taken at 30, 60, 120 and 180 minutes after drug administration. Blood samples were not taken from the fifth volunteer. At 60 minutes after drug administration, PET scans were initiated and these were stopped at 120 minutes after drug administration.
# The experiment was carried out at dosages of 7.5 mg, 15 mg and 22.5 mg.
# [2] = tested on: non-amphetamine induced rats; test: Locomotor activity and stereotypic behaviour in non-amphetamine induced rats, open field arena (Example 2, Study 3); format: in vivo, rat; settings: Study 3, non-induced rats; (+)-α-DHTBZ 2.5 mg/kg or 5 mg/kg, risperidone 1 mg/kg
# Experimental: All animal experiments were carried out according to the National Institute of Health (NIH) guidelines for the care and use of laboratory animals, and approved by the National Animal Experiment Board, Finland. Male CD (Charles River Laboratories, Germany) at weight range of 200-250 g (165-200 g upon arrival) were used for the experiments. Animals were housed at a standard temperature (22±1° C.) and in a light-controlled environment (lights on from 7 am to 8 pm) with ad libitum access to food and water.
# Locomotor activity of the rats was tested in open field arena. The open field test was performed during the rat light cycle and under a normal lighting evenly distributed to the test chambers. The paths of the rats were recorded by activity monitor (Med. Associates Inc.).
# Dosing the vehicle, vehicle-amphetamine, (+)-α-DHTBZ or risperidone was done prior to LMA test. The rats were placed in the centre of the arena, and the path was recorded for 60 minutes.
# Animals were grouped as follows: • Group 1: 10 rats treated with Vehicle • Group 2: 10 rats treated with (+)-α-DHTBZ 2.5 mg/kg • Group 3: 10 rats treated with (+)-α-DHTBZ 5 mg/kg • Group 4: 10 rats treated with risperidone 1 mg/kg
# VMAT2 [3] = biological target: T1, VMAT2; test: % VMAT2 blocking by PET scan 6-7 hours after oral dosing of human volunteers (Example 1B); format: in vivo; settings: for reduction of level of VMAT2 blocking after 6-7 hours compared to 1-2 hours following administration: 7.5 mg
# Excerpt: as §1
# (§2) Volunteers 1 and 2 were the same as volunteers 1 and 2 in Example 1A described above. […] Blood sample were taken from all volunteers 1 to 3 at 2, 4, 6 and 7 hours after drug administration. In addition, in all volunteers PET scans were initiated at 6 hours after drug administration and these were stopped at 7 hours after drug administration.
# [4] = Plasma levels of (+)-α-dihydrotetrabenazine up to 7 hours after oral dosing of human volunteers (Example 1B); format: in vivo; settings: 7.5 mg, 7.5 mg oral
# Experimental: as §2
# T1 sequence (Q05940 whole entry): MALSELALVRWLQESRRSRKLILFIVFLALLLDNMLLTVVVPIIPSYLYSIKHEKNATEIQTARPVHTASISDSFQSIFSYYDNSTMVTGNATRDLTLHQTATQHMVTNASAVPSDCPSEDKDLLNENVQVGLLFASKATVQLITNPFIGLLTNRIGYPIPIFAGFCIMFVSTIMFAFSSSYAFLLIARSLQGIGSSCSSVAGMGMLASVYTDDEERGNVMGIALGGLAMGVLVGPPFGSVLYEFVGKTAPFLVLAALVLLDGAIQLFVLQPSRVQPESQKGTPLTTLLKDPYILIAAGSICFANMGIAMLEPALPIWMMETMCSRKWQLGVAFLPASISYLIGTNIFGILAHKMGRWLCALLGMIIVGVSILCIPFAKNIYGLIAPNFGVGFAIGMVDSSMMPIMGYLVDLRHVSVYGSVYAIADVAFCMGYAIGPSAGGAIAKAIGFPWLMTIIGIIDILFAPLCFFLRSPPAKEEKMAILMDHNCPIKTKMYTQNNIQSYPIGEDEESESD
structure (smiles),measurement,setting,value
"COc1cc2c(cc1OC)[C@H]1C[C@@H](O)[C@H](CC(C)C)CN1CC2 [(+)-α-dihydrotetrabenazine, (R,R,R)-3-isobutyl-9,10-dimethyloxy-1,3,4,5,7,11b-hexahydro-2H-pyrido[2,1-a]isoquinolin-2-ol]",% VMAT2 blocking,"VMAT2 [1]; 7.5 mg oral, PET scan 60-120 min after administration, subject 1 (112 kg)",54%
same,% VMAT2 blocking,"VMAT2 [1]; 7.5 mg oral, PET scan 60-120 min after administration, subject 2 (76 kg)",73%
same,% VMAT2 blocking,"VMAT2 [1]; 7.5 mg oral, PET scan 60-120 min after administration, subject 3 (129 kg)",62%
same,% VMAT2 blocking,"VMAT2 [1]; 7.5 mg oral, PET scan 60-120 min after administration, subject 4 (59 kg)",84%
same,% VMAT2 blocking,"VMAT2 [1]; 7.5 mg oral, PET scan 60-120 min after administration, subject 5 (91 kg)",73%
same,% VMAT2 blocking,"VMAT2 [1]; 7.5 mg oral, PET scan 60-120 min after administration, subject 6 (68 kg)",60%
same,% VMAT2 blocking,"VMAT2 [1]; 15 mg oral, PET scan 60-120 min after administration, subject 1 (112 kg)",73%
same,% VMAT2 blocking,"VMAT2 [1]; 15 mg oral, PET scan 60-120 min after administration, subject 2 (76 kg)",83%
same,% VMAT2 blocking,"VMAT2 [1]; 15 mg oral, PET scan 60-120 min after administration, subject 3 (129 kg)",69%
same,% VMAT2 blocking,"VMAT2 [1]; 15 mg oral, PET scan 60-120 min after administration, subject 4 (59 kg)",89%
same,% VMAT2 blocking,"VMAT2 [1]; 15 mg oral, PET scan 60-120 min after administration, subject 5 (91 kg)",79%
same,% VMAT2 blocking,"VMAT2 [1]; 15 mg oral, PET scan 60-120 min after administration, subject 6 (68 kg)",76%
same,% VMAT2 blocking,"VMAT2 [1]; 22.5 mg oral, PET scan 60-120 min after administration, subject 1 (112 kg)",75%
same,% VMAT2 blocking,"VMAT2 [1]; 22.5 mg oral, PET scan 60-120 min after administration, subject 2 (76 kg)",82%
same,% VMAT2 blocking,"VMAT2 [1]; 22.5 mg oral, PET scan 60-120 min after administration, subject 3 (129 kg)",74%
same,% VMAT2 blocking,"VMAT2 [1]; 22.5 mg oral, PET scan 60-120 min after administration, subject 5 (91 kg)",82%
same,% VMAT2 blocking,"VMAT2 [1]; 22.5 mg oral, PET scan 60-120 min after administration, subject 6 (68 kg)",62%
same,% VMAT2 blocking,"VMAT2 [1]; heavier individuals, doses as low as 7.5 mg",at least 50%
same,total movement compared to rats treated with the vehicle,[2],comparable
same,total stereotypic behaviour compared to rats treated with the vehicle,[2],comparable
same,% VMAT2 blocking,"VMAT2 [3]; 7.5 mg oral, PET scan 6-7 hours after administration, subject 1 (112 kg)",38%
same,% VMAT2 blocking,"VMAT2 [3]; 7.5 mg oral, PET scan 6-7 hours after administration, subject 2 (76 kg)",65%
same,% VMAT2 blocking,"VMAT2 [3]; 7.5 mg oral, PET scan 6-7 hours after administration, subject 3 (76 kg)",41%
same,% VMAT2 blocking,"VMAT2 [3]; 7.5 mg oral, PET scan 6-7 hours after administration, subject 4 (95 kg)",34%
same,% VMAT2 blocking,"VMAT2 [3]; 7.5 mg oral, PET scan 6-7 hours after administration, subject 5 (99 kg)",36%
same,reduction of level of VMAT2 blocking after 6-7 hours compared to 1-2 hours following administration,VMAT2 [3]; subject 1,30%
same,reduction of level of VMAT2 blocking after 6-7 hours compared to 1-2 hours following administration,VMAT2 [3]; subject 2,11%
same,% VMAT2 blocking,VMAT2 [3]; after 6 hours following administration of 7.5 mg,greater than 30%
same,concentration at 2 h,[4]; subject 1 (112 kg),6.01 ng/mL
same,concentration at 2 h,[4]; subject 2 (76 kg),17.5 ng/mL
same,concentration at 2 h,[4]; subject 3 (76 kg),7.92 ng/mL
same,concentration at 4 h,[4]; subject 1 (112 kg),4.54 ng/mL
same,concentration at 4 h,[4]; subject 2 (76 kg),4.54 ng/mL
same,concentration at 4 h,[4]; subject 3 (76 kg),5.57 ng/mL
same,concentration at 6 h,[4]; subject 1 (112 kg),3.65 ng/mL
same,concentration at 6 h,[4]; subject 2 (76 kg),3.65 ng/mL
same,concentration at 6 h,[4]; subject 3 (76 kg),4.84 ng/mL
same,concentration at 7 h,[4]; subject 1 (112 kg),8.7 ng/mL
same,concentration at 7 h,[4]; subject 2 (76 kg),11.7 ng/mL
same,concentration at 7 h,[4]; subject 3 (76 kg),12.8 ng/mL
